Experimental data taken from patent publication US20180237362A1, “NOVEL POLYGODIAL ANALOGS FOR THE TREATMENT OF CANCER AND OTHER PROLIFERATIVE DISEASES” (THE BOARD OF REGENTS OF THE UNIVERSITY OF TAXAS SYSTEM, priority 2015, published 2018).
Like-named read-outs stand apart in the source and are kept apart here.

Columns and labels:
[1] = tested on: human A549 non-small cell lung cancer (NSCLC); test: MTT antiproliferative assay, A549; assay type: cell-based; details: for GI50: 72 h treatment, MTT assay, sextuplicates, read-out: GI50 in vitro values, A549
Protocol: (§1) Human mammary carcinoma MCF-7 (ATCC HTB22) cells were cultured in RPMI supplemented with 10% FBS. The U87 cells (ATCC HTB-14) were cultured in DMEM culture medium, while the A549 cells (DSMZ ACC107) were cultured in RPMI culture medium supplemented with 10% heat-inactivated FBS. The GBM Hs683 (ATCC HTB-138) cells were cultivated in DMEM supplemented with 10% FBS. The human uterine sarcoma MES-SA (ATCC CRL1966) and MES-SA/D×5 cells were cultured in RPMI-1640 medium supplemented with 10% FBS with MES SA/D×5 maintained in the presence of 500 nM Doxorubicin (Sigma). SKMEL-28 cells (ATCC HTB72) and U373 GBM cells (ECACC 08061901) were cultured in RPMI culture medium supplemented with 10% heat-inactivated FBS. Cell culture media were supplemented with 4 mM glutamine (Lonza code BE17-605E), 100 μg/mL gentamicin (Lonza code 17-5182), and penicillin-streptomycin (200 units/ml and 200 μg/ml) (Lonza code 17-602E). The MDA-MB-231 (ATCC HTB-26) epithelial mammary adenocarcinoma cells were cultured in Eagle's minimum essential medium (EMEM; Invitrogen) containing 5% fetal calf serum (FCS, Cambrex), 2 mM L-glutamine (Invitrogen), 0.06% HEPES (Invitrogen) and penicillin (50 IU/ml)/streptomycin (50 µg/ml; Invitrogen) at 37° C. in a humidified atmosphere of 5% CO2 in air. Transformed mouse NPCs were cultured in suspension under neurosphere conditions at 37° C. in a humidified atmosphere of […] and 5% CO2 in DMEM F12 (Invitrogen 11320-074) supplemented with 1×B27 supplement (Invitrogen 17504-044), 5% penicillin-streptomycin (Biochrom 10378-017), 10 ng/ml EGF (R&D systems 236-EG), 10 ng/ml FGF (PeproTech 100-18B).
(§2) Antiproliferative properties of the synthesized compounds were evaluated by the MTT assay. All compounds were dissolved in DMSO at a concentration of either 100 μM or 50 μM prior to cell treatment. The cells were trypsinized and seeded at various cell concentrations depending on the cell type. The cells were grown for 24 h to 72 h, treated with compounds at concentrations ranging from 0.001 to 100 μM and incubated for 48 or 72 h in 100 or 200 μL media depending on the cell line used. The number of experiments and replicates varied depending on the cell line. Cells treated with 0.1% DMSO were used as a negative control; 1 μM PAO was used as a positive control.
(§3) The synthesized C12-Wittig derivatives were evaluated for antiproliferative activities in a panel of cancer cell lines that included apoptosis-resistant human U373 glioblastoma (GBM) (Lefranc et al., 2013), human A549 non-small cell lung cancer (NSCLC) and human SKMEL-28 melanoma (Mathieu et al., 2009) as well as apoptosis-sensitive human Hs683 anaplastic oligodendroglioma (Lefranc et al., 2013) and human MCF-7 breast cancer (Frolova et al., 2013).

human SKMEL-28 melanoma = test: MTT antiproliferative assay, SKMEL-28; assay type: cell-based; details: sextuplicates, read-out: GI50 in vitro values, SKMEL-28
Protocol: as §1, §2, §3

[2] = tested on: human MCF-7 breast cancer; test: MTT antiproliferative assay, MCF-7; assay type: cell-based; details: sextuplicates, read-out: GI50 in vitro values, MCF-7
Protocol: as §1, §2, §3

[3] = tested on: human U373 glioblastoma (GBM); test: MTT antiproliferative assay, U373; assay type: cell-based; details: 72 h treatment, sextuplicates, read-out: GI50 in vitro values, U373
Protocol: as §1, §2, §3

[4] = tested on: human Hs683 anaplastic oligodendroglioma; test: MTT antiproliferative assay, Hs683; assay type: cell-based; details: sextuplicates, read-out: GI50 in vitro values, Hs683
Protocol: as §1, §2, §3

[5] = tested on: panel of cancer cell lines (A549, SKMEL-28, MCF-7, U373, Hs683); test: MTT antiproliferative assay, panel of five cancer cell lines; assay type: cell-based, human; details: mean over five cell lines, 72 h treatment, MTT assay, read-out: GI50 in vitro values, Mean + SEM
Protocol: as §2, §3

OSCC cell line HSC3 = test: Cell viability (Cell Titer 96 Aqueous), HSC3; assay type: cell-based, human; details: 48 hours; potency order P10, polygodial, P3
From the text: (§4) Human cancer cell lines were obtained from the American Type Culture Collection (ATCC, Manassas, Va., USA), the European Collection of Cell Culture (ECACC, Salisbury, UK) and the Deutsche Sammlung von Mikroorganismen und Zellkulturen (DSMZ, Braunschweig, Germany). The OSCC cell lines, Cal27 and HSC3 are derived from human primary tongue tumor. Cal27 cells were obtained from the American Type Culture Collection (Rockville, Md.). HSC3 cells were provided by Dr. Brian Schmidt. HeLa cells (cervical cancer cell line) were obtained from ATCC. Cells were cultured in DMEM, containing 10% FBS and 1% penicillin-streptomycin media, at 37° C. in 5% CO2. All cells were authenticated by Genetic DNA Laboratories.
(§5) The cytotoxicity of polygodial, P10, P3, and P27 in Cal27, HSC3, and HeLa cells was examined in vitro using a colorimetric assay, Cell Titer 96® Aqueous Non-Radioactive Cell Proliferation Assay. […] GraphPad Prism4 was used to perform statistical analysis.

[6] = tested on: cervical cancer cell line HeLa; test: Cell viability (Cell Titer 96 Aqueous), HeLa; assay type: cell-based, human; details: 48 hours; potency order P10, polygodial, P3
From the text: as §4, §5

HeLa-derived tumors = test: Mouse xenograft model, HeLa; assay type: in vivo, athymic nude mice
Protocol: Six-week old female athymic nude mice were used in laminar air-flow cabinet in pathogen-free conditions. They were acclimated for one week prior to the start of the study and kept at controlled temperature and humidity, with food and water. Mice were injected subcutaneously in the flank with 2×10^6 Cal27 cells or HeLa cells in 0.1 mL of sterile PBS. When the tumors reached 100 mm^3 (Cal27) and 150 mm^3 (HeLa), the mice were stratified into 4 groups, […], polygodial, P10, P3 and P27 at the concentrations noted in the figure legends.

[7] = biological target: T1, CHO cells that overexpress TRPV1 (CHO-TRPV1) (Homo sapiens, UniProt Q8NER1); test: Calcium imaging, CHO-TRPV1; assay type: cell-based; details: polygodial 80 μM, P10 4 μM, P3 50 μM
T1 construct: expressed in transfected cells; host or cells: CHO cells
T1 sequence (Q8NER1 whole entry): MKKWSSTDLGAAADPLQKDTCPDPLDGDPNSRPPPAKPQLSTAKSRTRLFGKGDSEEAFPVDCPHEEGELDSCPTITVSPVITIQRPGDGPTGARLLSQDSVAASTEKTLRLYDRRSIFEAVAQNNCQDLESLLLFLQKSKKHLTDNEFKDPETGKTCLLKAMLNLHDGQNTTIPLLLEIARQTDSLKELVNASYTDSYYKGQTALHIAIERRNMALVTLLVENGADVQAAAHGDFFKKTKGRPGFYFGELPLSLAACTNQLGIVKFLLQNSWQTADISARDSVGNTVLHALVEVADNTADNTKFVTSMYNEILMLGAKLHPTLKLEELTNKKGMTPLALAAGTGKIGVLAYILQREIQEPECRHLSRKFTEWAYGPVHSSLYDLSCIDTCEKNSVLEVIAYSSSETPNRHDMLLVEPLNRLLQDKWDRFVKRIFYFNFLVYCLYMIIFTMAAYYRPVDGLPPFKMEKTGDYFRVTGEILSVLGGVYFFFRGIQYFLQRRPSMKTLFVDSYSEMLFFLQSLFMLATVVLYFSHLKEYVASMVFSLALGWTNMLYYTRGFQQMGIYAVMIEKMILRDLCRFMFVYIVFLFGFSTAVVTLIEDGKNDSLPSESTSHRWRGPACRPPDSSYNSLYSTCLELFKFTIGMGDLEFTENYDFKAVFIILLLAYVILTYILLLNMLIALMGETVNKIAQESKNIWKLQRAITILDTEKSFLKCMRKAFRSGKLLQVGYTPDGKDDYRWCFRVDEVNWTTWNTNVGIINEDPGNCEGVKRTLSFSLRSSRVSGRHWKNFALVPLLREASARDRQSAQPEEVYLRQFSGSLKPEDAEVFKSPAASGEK
Protocol: CHO cells that overexpress TRPV1 (CHO-TRPV1) were treated with polygodial (80 μM), P10 ([…]), or P3 (50 μM) and calcium influx was measured. Cells were also pre-treated with the TRPV1 antagonist capsazepine (CPZ; 10 μM) to determine if calcium influx via TRPV1 was inhibited. 3 μM ionomycin was used as a positive control. Fluo-4 Direct Calcium Assay Kit and Sweptfield confocal with Nikon Ti were used to visualize calcium influx and the images were analyzed using ImageJ software.

HeLa cells = test: Calcium imaging, HeLa; assay type: cell-based, human; details: polygodial 80 μM, P10 4 μM, P3 50 μM
HSC3 cells = test: Calcium imaging, HSC3; assay type: cell-based, human
[8] = tested on: U87 glioblastoma cell cultures; test: MTT growth curves, U87; assay type: cell-based, human; details: apoptosis-resistant U87 GBM; concentrations up to 100 μM
Protocol: as §1
(§6) Antiproliferative properties of the synthesized compounds were evaluated by the MTT assay. All compounds were dissolved in DMSO at a concentration of either 100 μM or 50 μM prior to cell treatment. The cells were trypsinized and seeded at various cell concentrations depending on the cell type. […]

[9] = tested on: uterine sarcoma MES-SA cells; test: MTT antiproliferative assay, MES-SA; assay type: cell-based, human; details: Homo sapiens, MES-SA, 48 h treatment, relative to DMSO control, read-out: GI50 in vitro values, MES-SA
Protocol: as §1, §6

[10] = tested on: MDR uterine sarcoma cell line MES-SA/Dx5; test: MTT antiproliferative assay, MDR MES-SA/Dx5; assay type: cell-based, human
Protocol: as §1, §2
Selection of the MES-SA/D×5 cell line was done according to Harker et al. (Harker & Sikic, 1985). The cells were split and allowed to adhere overnight. The next day cells were initially exposed to doxorubicin (DOX) at the concentration of 100 nM, which represented the GI50 concentration. The cells were maintained at this DOX concentration until their growth rate reached that of the untreated cells. The DOX concentration was then increased in two-fold increments following the same growth criteria at each concentration to a final DOX concentration of 500 nM. Each new DOX concentration required approximately 2 passages to reach the growth rate of the untreated cells.
Often, tumors initially respond to chemotherapy but eventually become refractory to the continuing treatment. Such acquired resistance commonly occurs through the development of a multi-drug resistant phenotype (MDR) (Gottesman et al., 2002 and Saraswathy & Gong, 2013) affecting many common chemotherapeutic agents, including the vinca alkaloids (Chen et al., 2000) and taxanes (Geney et al., 2002). In addition, the development of apoptosis resistance and MDR mechanisms is often related and concurrent (Ruefli et al., 2002 and Johnstone et al., 1999), and thus it was of interest to evaluate 5 against MDR cells. Towards this end, the MDR uterine sarcoma cell line MES-SA/D×5, established by growing the parent uterine sarcoma MES-SA in the presence of increasing concentrations of doxorubicin and resistant to multiple functionally and structurally unrelated molecules (Harker & Sikic, 1985), was utilized.

Row | SMILES | GI50 [1] | GI50 (human SKMEL-28 melanoma; 72 h treatment) | GI50 ([2]; 72 h treatment) | GI50 [3] | GI50 ([4]; 72 h treatment) | GI50 [5] | other results
1 | COC(=O)/C=C/C=C/C1=CCC2C(C)(C)CCC[C@]2(C)[C@@H]1C=O (stereo partly shown) [Compound 10] | 29 µM | 25 µM | 31 µM | 27 µM | 12 µM | 25 ± 3 µM | 
2 | CC1(C)CCC[C@]2(C)[C@H](C=O)C(C=O)=CC[C@@H]12 [Compound P10, 9-epi-polygodial] |  |  |  |  |  |  | cancer cell viability, HSC3 (OSCC cell line HSC3): reduced cancer cell viability in vitro; cancer cell viability, HeLa [6]: reduced cancer cell viability in vitro; anti-tumor effect, HeLa-derived tumors (HeLa-derived tumors; 40 μg/100 μl intra-tumor injection every other day for 18 days, polygodial significantly more efficacious than P3): not efficacious in vivo; adverse effects, HeLa xenograft mice (HeLa-derived tumors; mouse, in vivo): no adverse effects in vivo; TRPV1 activation (calcium influx), CHO-TRPV1 [7]: do not; calcium influx, HeLa (HeLa cells): did not induce calcium influx; reversal of calcium influx by capsazepine, HSC3 (HSC3 cells; CPZ 10 μM): not reversed; calcium influx, HSC3 (HSC3 cells; polygodial 80 μM, P10 4 μM, P3 50 μM): did induce calcium influx
3 | CCOC(=O)C(C)=CC1=CCC2C(C)(C)CCCC2(C)C1C=O (stereo not shown) [Compound 7] | 26 µM | 37 µM | 27 µM | 37 µM | 28 µM | 31 ± 2 µM | 
4 | COC(=O)/C=C/C1=CCC2C(C)(C)CCC[C@]2(C)[C@@H]1C=O (stereo partly shown) |  |  |  |  |  |  | GI50 ([1]; Homo sapiens, A549): 29 ± 1 µM; GI50 (human SKMEL-28 melanoma; Homo sapiens, SK-MEL-28, 72 h treatment): 70 ± 1 µM; GI50 ([2]; Homo sapiens, MCF7, 72 h treatment): 28 ± 1 µM; GI50 ([3]; Homo sapiens, U373 MG): 39 ± 1 µM; GI50 ([4]; Homo sapiens, Hs 683, 72 h treatment): 33 ± 0.5 µM; GI50 ([5]; Homo sapiens): 40 ± 8 µM
5 | COc1cc([C@@H]2c3cc4c(cc3[C@H](O)[C@H]3COC(=O)[C@H]23)OCO4)cc(OC)c1OC [podophyllotoxin, reference compound] |  |  |  |  |  |  | effect on proliferation/viability of all cells, A549 ([1]; apoptosis-resistant A549 NSCLC, concentrations up to 100 μM): no effect on proliferation of ca. 50% of cells; effect on proliferation/viability of all cells, U87 [8]: no effect on proliferation of ca. 50% of cells
6 | CC[C@]1(O)C[C@@H]2CN(CCc3c([nH]c4ccccc34)[C@@](C(=O)OC)(c3cc4c(cc3OC)N(C)[C@H]3[C@@](O)(C(=O)OC)[C@H](OC(C)=O)[C@]5(CC)C=CCN6CC[C@]43[C@@H]65)C2)C1 [Vinblastine] |  |  |  |  |  |  | GI50 [9]: 0.006 µM; change of potency against MES-SA/Dx5 MDR cell line as compared with parent MES-SA cells ([10]; 48 h MTT): lost their potency by a factor of a thousand; GI50 ([10]; Homo sapiens, MES-SA/Dx5, 48 h treatment, MTT assay, relative to DMSO control, read-out: GI50 in vitro values, MES-SA/Dx5): 5 µM
7 | CC(C)(C)OC(=O)/C=C/C1=CCC2C(C)(C)CCC[C@]2(C)[C@@H]1C=O (stereo partly shown) [Compound 8] | 29 µM | 41 µM | 32 µM | 40 µM | 29 µM | 34 ± 3 µM | 
8 | CC1(C)CCCC2(C)C(C=O)C(C=CC(=O)OCc3ccccc3)=CCC12 (stereo not shown) [Compound 9] | 28 µM | 39 µM | 27 µM | 39 µM | 31 µM | 33 ± 3 µM | 
9 | CCOC(=O)/C=C/C1=CCC2C(C)(C)CCC[C@]2(C)[C@@H]1C=O (stereo partly shown) [Compound 6] | 25 µM | 29 µM | 30 µM | 37 µM | 29 µM | 30 ± 2 µM | 

Now from value to compound, other results behind:

Row | GI50 [1] | GI50 (human SKMEL-28 melanoma; 72 h treatment) | GI50 ([2]; 72 h treatment) | GI50 [3] | GI50 ([4]; 72 h treatment) | GI50 [5] | SMILES | other results
10 | 24 µM | 28 µM | 20 µM | 25 µM | 22 µM | 24 ± 1 µM | CC(=O)/C=C/C1=CCC2C(C)(C)CCC[C@]2(C)[C@@H]1C=O (stereo partly shown) [Compound 12] | 
11 | 27 µM | 42 µM | 31 µM | 36 µM | 28 µM | 33 ± 3 µM | CC1(C)CCC[C@@]2(C)C1CC=C(/C=C/C#N)[C@H]2C=O (stereo partly shown) [Compound 11] | 
